Where a name gives a salt, the structure may show the parent alone.
Legend:
[1] = system: Mouse phenylquinone writhing; test: Mouse phenylquinone writhing inhibitory activity; assay type: in vivo, mouse (Slc: ICR); settings: Mus musculus, po, 20 min, 50 mg/kg, orally; read-out: Inhibitory percentage (phenylquinone writhing)
Experimental: Mouse Phenylquinone Writhing Inhibitory Activity A Slc: ICR male mouse (4 weeks, weight 17 to 24 g) was used. A test compound suspended in 5% gum arabic solution was administered orally. After 30 minutes, 0.1 ml/10 g body weight of 0.02% phenylquinone solution in water (dissolved by the aid of 5% ethanol) was injected intraperitoneally, and writhing and stretching responses of individual animals were measured for 20 minutes [Siegmund, E., Cadmus, R. and Lu, G.; Proc. Soc. exp. Biol. Med. 95, (1957)].

[2] = biological target: T1, cyclooxygenase (Rattus norvegicus, UniProt Q63921); test: Cyclooxygenase inhibitory activity (HHT formation from arachidonic acid in rat platelet-rich plasma); assay type: cell-based, rat (Jcl:wistar)
T1 construct: from tissue; host or cells: platelets in platelet-rich plasma from rat abdominal aorta blood (Jcl:wistar, male)
T1 sequence (Q63921 27-602): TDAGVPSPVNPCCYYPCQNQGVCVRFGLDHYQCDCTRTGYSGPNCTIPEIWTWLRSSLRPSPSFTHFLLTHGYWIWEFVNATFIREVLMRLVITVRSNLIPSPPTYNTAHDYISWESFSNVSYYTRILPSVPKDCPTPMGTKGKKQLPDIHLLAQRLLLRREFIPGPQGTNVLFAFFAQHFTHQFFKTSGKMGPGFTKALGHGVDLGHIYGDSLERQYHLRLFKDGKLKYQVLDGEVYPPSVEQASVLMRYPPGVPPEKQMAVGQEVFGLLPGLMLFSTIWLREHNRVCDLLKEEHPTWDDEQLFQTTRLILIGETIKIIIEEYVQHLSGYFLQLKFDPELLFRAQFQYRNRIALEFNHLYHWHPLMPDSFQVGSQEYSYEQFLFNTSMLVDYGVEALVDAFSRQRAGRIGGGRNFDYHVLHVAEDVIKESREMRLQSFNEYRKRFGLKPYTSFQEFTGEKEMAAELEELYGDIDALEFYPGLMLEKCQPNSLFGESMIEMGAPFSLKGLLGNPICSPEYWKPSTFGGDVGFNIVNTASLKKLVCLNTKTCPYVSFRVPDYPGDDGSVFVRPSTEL

[3] = system: brewer's yeast induced pyrexia; test: Antipyretic activity (brewer's yeast induced pyrexia); assay type: in vivo, rat (DS line); settings: 50 mg/kg, orally; for Antipyretic activity, .increment. °C.: at peak time
Experimental: Antipyretic Activity Six male DS line rats, 7 weeks old, weighing 200 to 240 g (Nihon Clea) per one group were used. According to the method of Winder et al. (J. Pharmac. Exp. Ther. 138: 405 (1963)), a suspension of 15% brewer's yeast (Sigma) in physiological saline (1 ml/100 g, b.w.) was injected subcutaneously at 16 hours before measurement of the body temperature to induce pyrexia. After injection of yeast, only water was provided, and each rat was bred separately in a five duplicate cage. At 16, 17 and 18 hours after yeast injection, the rectal temperature was measured by a thermistor thermometer (Takara Kogyo K.K.), and this was taken as the basal body temperature. […] Animals having the body temperature of not lower than 38.5° C. at 18 hours after yeast injection were selected, and a test compound was administered orally (1 ml/100 g, b.w.). As a control, only the solvent was provided. Upon administration, the body temperature of the control group and that of the test compound-administered group were adjusted to the same temperature. The rectal temperature was measured every hour till five hours after administration.

[4] = system: Rat carrageenin pedal edema; test: Rat carrageenin pedal edema inhibitory activity; assay type: in vivo, rat (Jcl: SD); settings: 50 mg/kg, orally, 3 hours after carrageenin; for inhibition in vivo at 50 mg/kg: Rattus norvegicus, po, 3 h, read-out: Inhibitory percentage (carrageenin pedal edema)
Experimental: Rat Carrageenin Pedal Edema Inhibitory Activity A Jcl: SD male rat (6 weeks old, weight 160-220 g) was used. After the mesurement of the volume of the dexter hind limb foot pad, a test compound suspended in 5% gum arabic solution was administered orally. Immediately after the administration, water was further administered orally so that the total administration volume of liquid became 5 ml/rat. After one hour, 0.05 ml of 1% carrageenin suspension in physiological saline was injected subcutaneously in the foot pad to induce edema [Winter, […]. and Nuss, G. W.: Proc. Soc. exp. […] Three hours after injection of carrageenin, the volume of the dexter limb was measured, and the edema volume was calculated by the difference between the volume after injection and the volume prior to injection.

[5] = system: ART (antigen-responding T-cell); test: In vitro ART (antigen-responding T-cell) proliferation test; assay type: cell-based, Lewis rat; settings: Rattus norvegicus, T-cell, read-out: % Inhibition of ART growth

Structure (SMILES) | inhibition in vivo at 50 mg/kg [1] | IC50 [2] | Antipyretic activity, peak time [3] | Antipyretic activity, .increment. °C. [3] | inhibition in vivo at 50 mg/kg [4] | inhibition at 1 µM [5] | inhibition at 10 µM [5] | Antipyretic activity, .increment. °C. ([3]; hydrochloride) | Antipyretic activity, peak time ([3]; hydrochloride) | Inhibitory percentage (carrageenin pedal edema) [4]
O=C(NCCCSc1ccncc1)c1ccccn1 [Example 42, 4-[3-(2-picolynoylamino)propylthio]pyridine] | 51% | 13.1 µM | 1 h | -0.80 °C | 34% |  |  |  |  | 
O=C(NCCCSc1ccncc1)c1ccncc1 [Example 43, 4-[3-(4-picolynoylamino)propylthio]pyridine] | 48% | 13 µM |  |  | 24% |  |  |  |  | 
O=C(NCCCSc1ccncc1)c1cccs1 [Example 46, 4-[3-(2-thenoylamino)propylthio]pyridine] | 66% | 7.9 µM | 4 h | -4.08 °C | 39% |  |  |  |  | 
O=C(NCCCSc1ccccn1)c1cccs1 [Example 47, 2-[3-(thenoylamino)propylthio]pyridine] | 47% |  |  |  | 25% |  |  |  |  | 
O=C(NCCCSc1ccncc1)c1ccsc1 [Example 54, 4-[3-(3-thiophenecarbonylamino)propylthio]pyridine] | 58% | 9 µM | 5 h | -3.50 °C | 45% |  |  |  |  | 
O=C(Cc1cccs1)NCCCSc1ccncc1 [Example 55, 4-[3-(2-thienylacetylamino)propylthio]pyridine] | 58% | 8.7 µM |  |  | 41% |  |  |  |  | 
O=C(NCCCSc1ccncc1)c1cc2ccccc2s1 [Example 57, 4-[3-(thianaphtene-2-carbonylamino)propylthio]pyridine] | 71% | 3.6 µM | 4 h | -1.28 °C | 35% |  |  |  |  | 
O=C(NCCCSc1ccncc1)c1cc(Br)c(Br)s1 [Example 58, 4-[3-(4,5-dibromothenoylamino)propylthio]pyridine] | 34% | 7.9 µM |  |  | 48% |  |  |  |  | 
Cc1ccc(C(=O)NCCCSc2ccncc2)s1 [Example 59, 4-[3-(5-methylthenoylamino)propylthio]pyridine] | 49% | 3.5 µM |  |  | 35% |  |  |  |  | 
O=C1c2ccccc2C(=O)N1CSc1cccnc1 [Example 63, 3-(phthalimidomethylthio)pyridine] | 56% |  |  |  | 34% |  |  |  |  | 
O=C1c2ccccc2C(=O)N1COc1ccncc1 [Example 65, 4-(phthalimidomethyloxy)pyridine] | 80% |  | 4 h | -0.62 °C | 39% |  |  |  |  | 
O=C(N(CCCSc1ccncc1)Cc1cccs1)C(F)(F)F [Example 68, 4-[3-[N-(2-thienylmethyl)-N-trifluoroacetylamino]propylthio]pyridine hydrochloride] | 50% |  |  |  | 23% |  |  |  |  | 
CC(=O)N(CCCSc1ccncc1)Cc1cccs1 [Example 90] | 53% | 4.9 µM |  |  | 21% | 34% | 49% |  |  | 
O=C1c2ccccc2CN1CCCOc1ccncc1 [Example 101, 4-[3-(isoindolin-1-on-2-yl)propyloxy]pyridine] | 66% | 3.2 µM |  |  | 26% | 39% | 12% |  |  | 
O=C1c2ccccc2CN1CCSc1ccncc1 [Example 105, 4-[2-(isoindolin-1-on-2-yl)ethylthio]pyridine] | 59% | 5.1 µM |  |  | 31% | -4% | -49% |  |  | 
O=C1c2ccccc2C(O)N1CCCSc1ccncc1 (stereo not shown) [Example 110, 4-[3-(3-hydroxyisoindolin-1-on-2-yl)propylthio]pyridine] |  | 11 µM |  |  | 44% | -21% | 1% |  |  | 
CNC(=O)c1ccccc1C(=O)NCSc1ccncc1 [Example 112, 4-[(2-methylcarbamoylbenzoyl)aminomethylthio]pyridine] |  | 13 µM | 3 h | -1.58 °C | 42% |  |  |  |  | 
Cl.O=C1c2ccccc2C(=O)N1CCCOc1ccncc1 [Example 113, 4-(3-phthalimidopropyloxy)pyridine hydrochloride] |  |  | 4 h | -0.82 °C | 35% |  |  |  |  | 
O=C1c2ccccc2C(=O)N1CCCCOc1ccncc1 [Example 114, 4-(4-phthalimidobutyloxy)pyridine hydrochloride] |  |  |  |  | 28% |  |  | -1.14 °C | 4 h | 
Cl.O=C1c2ccccc2C(=O)N1COc1ccncc1 [Example 116, 4-phthalimidomethyloxypyridine hydrochloride] |  |  | 3 h | -0.63 °C |  | 10% | 31% |  |  | 45%
Cl.Cl.O=C(NCCCOc1ccncc1)c1ccccn1 [Example 126, 4-[3-(2-picolinoylamino)propyloxy]pyridine dihydrochloride] |  |  | 2 h | -1.21 °C | 30% |  |  |  |  | 

Source: patent US5457106A, “Pyridine derivatives, their production and use” (Takeda Chemical Industries, Ltd., priority 1991, dated 1995)
